In PubChem BioAssay AID328 (DTP/NCI, 2004) one finds T/C data, which are given here for 19 compounds.

The test deals with BDF1 mice, P388 leukemia ip, median survival T/C. The test is described as follows: NCI In Vivo Anticancer Drug Screen. Data for tumor model P388 Leukemia (intraperitoneal) in B6D2F1 (BDF1) mice. Particulars: endpoint: median survival time, higher = longer survival. The gist of the method: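 T/C = treated-group survival ÷ vehicle-control survival; tumour transplanted into mice before dosing.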

The mark [1] stands for this setting: dose: 3.0 mg/kg/injection, schedule: Q01DX009 (ip), vehicle: saline.
The mark [2] stands for this setting: dose: 25.0 mg/kg/injection, schedule: Q01DX009 (ip), vehicle: saline.
[3] abbreviates: dose: 50.0 mg/kg/injection, schedule: Q01DX009 (ip), vehicle: saline.
The mark [4] stands for this setting: dose: 100.0 mg/kg/injection, schedule: Q01DX009 (ip), vehicle: saline.
Setting [5] is: dose: 100.0 mg/kg/injection, schedule: Q04DX003 (ip), vehicle: saline with Tween-80.
[6] abbreviates: dose: 200.0 mg/kg/injection, schedule: Q04DX003 (ip), vehicle: saline with Tween-80.
Setting [7] is: dose: 100.0 mg/kg/injection, schedule: Q01DX009 (ip), vehicle: saline with Tween-80.
Setting [8] is: dose: 200.0 mg/kg/injection, schedule: Q01DX009 (ip), vehicle: saline with Tween-80.
Where [9] appears, read: dose: 400.0 mg/kg/injection, schedule: Q01DX009 (ip), vehicle: saline with Tween-80.
[10] abbreviates: dose: 50.0 mg/kg/injection, schedule: Q01DX009 (ip), vehicle: saline with Tween-80.
[11] abbreviates: dose: 50.0 mg/kg/injection, schedule: Q04DX003 (ip), vehicle: saline.
The mark [12] stands for this setting: dose: 100.0 mg/kg/injection, schedule: Q04DX003 (ip), vehicle: saline.

Structures are written as SMILES. Where “and” joins values, the source holds several entries; their conditions need not be identical. Identical values can stand only once. Inconclusive results and toxic doses are left out.

In the case of `[O-]/C(CCl)=N\[n+]1c2c(nc3ccccc31)-c1cccc3cccc-2c13`, the T/C (dose: 12.5 mg/kg/injection, schedule: Q01DX001 (ip), vehicle: Klucel (hydroxypropylcellulose) (HPC)) is 105 % of control and the T/C (dose: 25.0 mg/kg/injection, schedule: Q01DX001 (ip), vehicle: Klucel (hydroxypropylcellulose) (HPC)) was 102 % of control.

Consider `O=C(Nc1ccc(C2=NCCCN2)cc1)c1ccc(C(=O)Nc2ccc(C3=NCCCN3)cc2)nc1`, for which the T/C is, setting by setting: (dose: 0.85 mg/kg/injection, schedule: Q01DX009 (ip), vehicle: saline) 92 % of control; (dose: 1.3 mg/kg/injection, schedule: Q01DX009 (ip), vehicle: saline) 103 % of control; under setting [1], 155 % of control; (dose: 5.0 mg/kg/injection, schedule: Q01DX009 (ip), vehicle: saline) 175 % of control; (dose: 8.0 mg/kg/injection, schedule: Q01DX009 (ip), vehicle: saline) 195 % of control; (dose: 10.0 mg/kg/injection, schedule: Q01DX009 (ip), vehicle: saline with Tween-80) 122 % of control. Also, the T/C reads like this: (dose: 12.0 mg/kg/injection, schedule: Q01DX009 (ip), vehicle: saline) 153 % of control; (dose: 12.5 mg/kg/injection, schedule: Q04DX003 (ip), vehicle: saline) 115 % of control; (dose: 16.5 mg/kg/injection, schedule: Q04DX003 (ip), vehicle: saline) 118 % of control; (dose: 18.0 mg/kg/injection, schedule: Q01DX009 (ip), vehicle: saline) 226 % of control; under setting [2], 196 % of control.

As to `CCCCN(CCCC)c1ccc([N+](=O)[O-])c2no[n+]([O-])c12`, the T/C is 96 % of control (dose: 15.0 mg/kg/injection, schedule: Q01DX009 (ip), vehicle: saline with Tween-80); 92 % of control (dose: 30.0 mg/kg/injection, schedule: Q01DX009 (ip), vehicle: saline with Tween-80); 91 % of control (dose: 60.0 mg/kg/injection, schedule: Q01DX009 (ip), vehicle: saline with Tween-80).

As to `OCCOCCN1CCN(CC/C=C2\c3ccccc3Sc3ccc(C(F)(F)F)cc32)CC1`, the T/C by setting is: (dose: 0.75 mg/kg/injection, schedule: Q01DX009 (ip), vehicle: saline) 95 % of control; (dose: 1.5 mg/kg/injection, schedule: Q01DX009 (ip), vehicle: saline) 90 % of control; under setting [1], 95 % of control.

Take `CN(C)CC(C)(C)CO`: the T/C under setting [2] is 96 % of control; the T/C under setting [3] was 106 % of control; the T/C under setting [4] is 101 % of control; the T/C (dose: 200.0 mg/kg/injection, schedule: Q01DX009 (ip), vehicle: saline) was 107 % of control.

As to `CC=C=CCN(C)Cc1ccccc1`, the T/C is 120 % of control (dose: 12.5 mg/kg/injection, schedule: Q01DX009 (ip), vehicle: saline); 100 % of control under setting [2]; 105 % of control and 109 % of control under setting [3].

Regarding `O=C(O)CC/C(=N\O)c1cccc([N+](=O)[O-])c1`, the T/C under setting [5] is 100 % of control; the T/C under setting [6] is 100 % of control; the T/C (dose: 400.0 mg/kg/injection, schedule: Q04DX003 (ip), vehicle: saline with Tween-80) was 95 % of control.

For `C[C@]12C=CC(=O)C=C1[C@@H](F)C[C@@H]1[C@@H]2[C@@H](O)C[C@@]2(C)[C@H]1CC[C@]2(O)C(=O)CO`, the T/C was 104 % of control (dose: 25.0 mg/kg/injection, schedule: Q01DX009 (ip), vehicle: Klucel (hydroxypropylcellulose) (HPC)); 96 % of control (dose: 50.0 mg/kg/injection, schedule: Q01DX009 (ip), vehicle: Klucel (hydroxypropylcellulose) (HPC)); 91 % of control and 108 % of control (dose: 100.0 mg/kg/injection, schedule: Q01DX009 (ip), vehicle: Klucel (hydroxypropylcellulose) (HPC)); 100 % of control (dose: 100.0 mg/kg/injection, schedule: Q04DX003 (ip), vehicle: Klucel (hydroxypropylcellulose) (HPC)); 104 % of control (dose: 200.0 mg/kg/injection, schedule: Q04DX003 (ip), vehicle: Klucel (hydroxypropylcellulose) (HPC)); 95 % of control (dose: 400.0 mg/kg/injection, schedule: Q04DX003 (ip), vehicle: Klucel (hydroxypropylcellulose) (HPC)).

In the case of `CC1CC2OC(=O)C3=C2C(CCC3)C12CC(c1ccoc1)OC2=O` (centres undefined), the T/C by setting is: (dose: 25.0 mg/kg/injection, schedule: Q01DX001 (ip), vehicle: saline with Tween-80) 111 % of control; (dose: 50.0 mg/kg/injection, schedule: Q01DX001 (ip), vehicle: saline with Tween-80) 106 % of control; (dose: 100.0 mg/kg/injection, schedule: Q01DX001 (ip), vehicle: saline with Tween-80) 106 % of control; (dose: 200.0 mg/kg/injection, schedule: Q01DX001 (ip), vehicle: saline with Tween-80) 116 % of control.

As for `Cc1cc[n+]2cc3c(ccc4ccccc43)c(C)c2c1`, the T/C (dose: 0.7 mg/kg/injection, schedule: Q01DX010 (ip), vehicle: carboxymethylcellulose (CMC)) was 110 % of control; the T/C (dose: 1.5 mg/kg/injection, schedule: Q01DX010 (ip), vehicle: carboxymethylcellulose (CMC)) was 100 % of control; the T/C (dose: 3.0 mg/kg/injection, schedule: Q01DX010 (ip), vehicle: carboxymethylcellulose (CMC)) was 110 % of control; the T/C (dose: 6.0 mg/kg/injection, schedule: Q01DX010 (ip), vehicle: carboxymethylcellulose (CMC)) was 115 % of control; the T/C (dose: 12.5 mg/kg/injection, schedule: Q01DX010 (ip), vehicle: carboxymethylcellulose (CMC)) is 110 % of control; the T/C (dose: 25.0 mg/kg/injection, schedule: Q01DX010 (ip), vehicle: carboxymethylcellulose (CMC)) is 110 % of control.

Regarding `CCN(CC)c1c(C)nnc2c(-c3ccccc3)nnn12`, the T/C was 97 % of control (dose: 50.0 mg/kg/injection, schedule: Q04DX003 (ip), vehicle: saline with Tween-80); 100 % of control under setting [5]; 97 % of control under setting [6].

As for `COc1ccc(/C=C/c2ccnc3ccccc23)cc1`, the T/C was 93 % of control under setting [7], 111 % of control under setting [8] and 93 % of control under setting [9].

With `CCOc1ccn(CC(=O)c2ccc(Cl)s2)c(=O)n1`, the T/C is 106 % of control under setting [10], 113 % of control under setting [7], 97 % of control under setting [8] and 106 % of control under setting [9].

As to `CCCSc1ncnc2nc(C)[nH]c12`, the T/C is 100 % of control (dose: 0.39 mg/kg/injection, schedule: Q01DX009 (ip), vehicle: saline with Tween-80); 109 % of control (dose: 0.78 mg/kg/injection, schedule: Q01DX009 (ip), vehicle: saline with Tween-80); 100 % of control and 122 % of control (dose: 1.56 mg/kg/injection, schedule: Q01DX009 (ip), vehicle: saline with Tween-80); 95 % of control and 100 % of control (dose: 3.13 mg/kg/injection, schedule: Q01DX009 (ip), vehicle: saline with Tween-80); 103 % of control (dose: 6.25 mg/kg/injection, schedule: Q01DX009 (ip), vehicle: saline with Tween-80); 103 % of control (dose: 12.5 mg/kg/injection, schedule: Q01DX009 (ip), vehicle: saline with Tween-80).

As to `C[S+](C)Cc1ccc(C(=O)Oc2ccc([N+](=O)[O-])cc2)cc1`, the T/C under setting [3] was 100 % of control; the T/C under setting [11] is 100 % of control; the T/C under setting [4] was 105 % of control; the T/C under setting [12] is 109 % of control; the T/C (dose: 200.0 mg/kg/injection, schedule: Q04DX003 (ip), vehicle: saline) was 100 % of control.

Turning to `Nc1ncns1`, the T/C was 101 % of control under setting [11] and 120 % of control under setting [12].

Take `CCOc1ccn(CC(=O)c2ccc([N+](=O)[O-])o2)c(=O)n1`: the T/C under setting [10] was 100 % of control and the T/C under setting [7] was 101 % of control.

Take `C=C1C(=O)OC2C1CC/C(C)=C/CCC1(C)OC21` (centres undefined): the T/C (dose: 70.0 mg/kg/injection, schedule: Q01DX009 (ip), vehicle: Klucel (hydroxypropylcellulose) (HPC)) is 116 % of control.

With `CC(N)C(=O)NC(C)C(=O)O` (centres undefined), the T/C was 98 % of control (dose: 100.0 mg/kg/injection, schedule: Q01DX001 (ip), vehicle: saline); 100 % of control (dose: 200.0 mg/kg/injection, schedule: Q01DX001 (ip), vehicle: saline); 99 % of control (dose: 400.0 mg/kg/injection, schedule: Q01DX001 (ip), vehicle: saline).
